Results on nine molecules are retold here after patent US20100022491A1, “4-HYDROXY-2-OXO-2,3-DIHYDRO-1,3-BENZOTHIAZOL-7YL COMPOUNDS FOR MODULATION OF B2-ADRENORECEPTOR ACTIVITY” (ASTRAZENECA AB, priority 2006, published 2010).

SMILES strings stand for the structures. Structures can show the parent of a compound that is named as a salt.

Test [1] addresses T1, recombinant human adrenergic beta 1 receptors (Homo sapiens, UniProt P08588).
T1 construct: purchased Euroscreen
Description: Adrenergic β1 selectivity binding assay ([125I]-Iodocyanopindolol). As to conditions: inhibition of [125I]-Iodocyanopindolol (0.036 nM) binding; read-out: β1 bind p IC50 (converted). Summed up: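 Recombinant human β1 membranes in HEPES buffer pH 7.4 with 120 mM NaCl were incubated 2 hours at room temperature with 0.036 nM [^125I]-Iodocyanopindolol. Nonspecific binding defined by 10 μM propranolol; bound radioactivity counted after filtration. pIC50 from four-parameter logistic fit.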

The target in test [2] is T2, recombinant human Dopamine Subtype D2s receptors (Homo sapiens, UniProt P14416).
T2 construct: purchased Perkin Elmer
Description: Dopamine D2 selectivity binding assay ([3H]-spiperone). As to conditions: inhibition of [3H]-spiperone (0.16 nM) binding; read-out: D2 bind pIC50 (converted). Summed up: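 Recombinant human D2s membranes incubated 2 h at room temperature with 0.16 nM [3H]-spiperone in HEPES/EDTA/NaCl/gelatin buffer, pH 7.4; 10 μM haloperidol defined non-specific binding. Filter-bound radioactivity counted after cold washes. pIC50 from 4-parameter logistic fit of NSB-corrected specific binding.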

In test [3] the target is T3, recombinant human α1D receptor (Homo sapiens, UniProt P25100).
T3 construct: expressed in transfected cells; host or cells: HEK293
T3 sequence (P25100 1-572): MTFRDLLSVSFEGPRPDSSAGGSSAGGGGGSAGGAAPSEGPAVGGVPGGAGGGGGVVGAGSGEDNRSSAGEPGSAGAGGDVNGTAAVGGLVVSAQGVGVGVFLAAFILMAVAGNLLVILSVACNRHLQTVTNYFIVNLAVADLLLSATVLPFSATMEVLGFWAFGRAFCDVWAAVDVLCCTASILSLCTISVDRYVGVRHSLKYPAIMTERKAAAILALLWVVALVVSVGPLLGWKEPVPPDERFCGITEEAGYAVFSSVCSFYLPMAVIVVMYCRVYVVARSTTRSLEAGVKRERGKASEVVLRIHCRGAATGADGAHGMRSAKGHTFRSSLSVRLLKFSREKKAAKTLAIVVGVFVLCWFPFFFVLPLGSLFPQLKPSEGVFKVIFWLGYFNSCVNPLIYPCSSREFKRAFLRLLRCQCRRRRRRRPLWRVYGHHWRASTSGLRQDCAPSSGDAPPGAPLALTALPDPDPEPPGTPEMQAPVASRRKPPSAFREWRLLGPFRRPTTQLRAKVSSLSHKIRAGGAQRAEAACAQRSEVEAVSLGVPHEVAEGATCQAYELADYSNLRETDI
Description: Adrenergic α1D selectivity binding assay ([3H]-prazosin). The note with it: inhibition of [3H]-prazosin (0.3 nM) binding, HEK293 membranes; read-out: α1 bind pIC50 (converted). Summed up: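 HEK293 membranes with recombinant human α1D receptor incubated 2 h at room temperature with 0.3 nM [3H]-prazosin and compound in 50 mM HEPES, 1 mM EDTA, 0.1% gelatin, pH 7.4; BMY7378 (10 μM) defined non-specific binding. Filter-bound radioactivity counted; pIC50 from four-parameter logistic fit.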

T1 sequence (P08588 whole entry): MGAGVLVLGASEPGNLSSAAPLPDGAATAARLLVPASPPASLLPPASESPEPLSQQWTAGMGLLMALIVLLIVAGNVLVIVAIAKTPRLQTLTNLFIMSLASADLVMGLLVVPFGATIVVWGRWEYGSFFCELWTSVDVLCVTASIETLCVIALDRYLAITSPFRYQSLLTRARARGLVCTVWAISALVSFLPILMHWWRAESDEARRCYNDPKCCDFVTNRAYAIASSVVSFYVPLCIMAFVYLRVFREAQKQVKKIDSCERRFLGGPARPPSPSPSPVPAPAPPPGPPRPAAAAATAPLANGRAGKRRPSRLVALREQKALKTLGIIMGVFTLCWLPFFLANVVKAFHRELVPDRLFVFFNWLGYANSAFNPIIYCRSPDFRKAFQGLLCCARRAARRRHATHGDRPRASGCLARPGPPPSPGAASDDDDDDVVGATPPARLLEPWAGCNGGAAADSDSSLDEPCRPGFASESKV
T2 sequence (P14416 1-414 isoform P14416-2): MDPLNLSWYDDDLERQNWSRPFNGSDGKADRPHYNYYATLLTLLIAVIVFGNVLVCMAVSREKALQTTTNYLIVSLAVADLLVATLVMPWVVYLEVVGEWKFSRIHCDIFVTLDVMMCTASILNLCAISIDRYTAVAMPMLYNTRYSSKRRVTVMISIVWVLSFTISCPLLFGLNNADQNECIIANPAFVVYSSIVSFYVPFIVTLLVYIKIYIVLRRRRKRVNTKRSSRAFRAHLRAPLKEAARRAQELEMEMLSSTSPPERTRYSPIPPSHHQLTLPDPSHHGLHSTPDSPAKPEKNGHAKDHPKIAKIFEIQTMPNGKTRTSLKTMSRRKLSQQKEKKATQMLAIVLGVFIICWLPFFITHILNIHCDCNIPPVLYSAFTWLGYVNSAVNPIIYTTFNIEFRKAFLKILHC

On to `O=C(CCNCCc1ccccc1)N(CCNCCc1ccc(O)c2[nH]c(=O)sc12)C1CCC(F)(F)CC1` [Example 4, N-(4,4-Difluorocyclohexyl)-N-(2-{[2-(4-hydroxy-2-oxo-2,3-dihydro-1,3-benzothiazol-7-yl)ethyl]amino}ethyl)-N^3-(2-phenylethyl)-β-alaninamide bis-trifluoroacetic acid salt], for which the results for the IC50 in test [1], in test [2] and in test [3] were 2510 nM, 2000 nM and 200 nM, respectively.

Regarding `O=C(CCNCCc1ccccc1)N(CCNCCc1ccc(O)c2[nH]c(=O)sc12)C1CCCCC1` [Example 5, N-Cyclohexyl-N-(2-{[2-(4-hydroxy-2-oxo-2,3-dihydro-1,3-benzothiazol-7-yl)ethyl]amino}ethyl)-N^3-(2-phenylethyl)-β-alaninamide bis-trifluoroacetic acid salt], the values for the IC50 in test [1], in test [2] and in test [3] were 5010 nM, 398 nM and 100 nM, respectively.

Regarding `Cc1cccc(CCNCCC(=O)N(CCNCCc2ccc(O)c3[nH]c(=O)sc23)C2CCCCCC2)c1` [Example 85, N^1-Cycloheptyl-N^1-(2-{[2-(4-hydroxy-2-oxo-2,3-dihydro-1,3-benzothiazol-7-yl)ethyl]amino}ethyl)-N^3-[2-(3-methylphenyl)ethyl]-β-alaninamide bis-trifluoroacetic acid salt], the IC50 in test [1] is 2510 nM; in test [2] it was 79.4 nM; in test [3], 50.1 nM.

Take `COc1ccc(CCNCCC(=O)N(CCNCCc2ccc(O)c3[nH]c(=O)sc23)C2CCCCCC2)cc1OC` [Example 86, N^1-Cycloheptyl-N^3-[2-(3,4-dimethoxyphenyl)ethyl]-N^1-(2-{[2-(4-hydroxy-2-oxo-2,3-dihydro-1,3-benzothiazol-7-yl)ethyl]amino}ethyl)-β-alaninamide bis-trifluoroacetic acid salt]: the IC50 in test [1] was 2510 nM; in test [2] it was 200 nM; in test [3], 251 nM.

In the case of `O=C(CCNCCc1ccc(O)c2[nH]c(=O)sc12)N(CCNCCc1ccc(O)c2[nH]c(=O)sc12)C1CCCCCC1` [Example 87, bis-trifluoroacetic acid salt], the figures for the IC50 in test [1], in test [2] and in test [3] were 794 nM, 39.8 nM and 251 nM, respectively.

In the case of `O=C(CCNCCc1ccc2c(c1)OCCO2)N(CCNCCc1ccc(O)c2[nH]c(=O)sc12)C1CCCCCC1` [Example 88, N-Cycloheptyl-N^3-[2-(2,3-dihydro-1,4-benzodioxin-6-yl)ethyl]-N^1-(2-{[2-(4-hydroxy-2-oxo-2,3-dihydro-1,3-benzothiazol-7-yl)ethyl]amino}ethyl)-β-alaninamide bis-trifluoroacetic acid salt], the IC50 in test [1] was 6310 nM; in test [2], 79.4 nM; in test [3], 251 nM.

Regarding `O=C(CCNCCc1ccc(O)c(Cl)c1)N(CCNCCc1ccc(O)c2[nH]c(=O)sc12)C1CCCCC1` [Example 89, N^3-[2-(3-chloro-4-hydroxyphenyl)ethyl]-N^1-cyclohexyl-N^1-(2-{[2-(4-hydroxy-2-oxo-2,3-dihydro-1,3-benzothiazol-7-yl)ethyl]amino}ethyl)-β-alaninamide bis-trifluoroacetic acid salt], the figures for the IC50 in test [1], in test [2] and in test [3] were 3160 nM, 79.4 nM and 50.1 nM, respectively.

In the case of `O=C(CCNCCc1cccc(O)c1)N(CCNCCc1ccc(O)c2[nH]c(=O)sc12)C1CCCCCCC1` [Example 90, N^1-Cyclooctyl-N^1-(2-{[2-(4-hydroxy-2-oxo-2,3-dihydro-1,3-benzothiazol-7-yl)ethyl]amino}ethyl)-N^3-[2-(3-hydroxyphenyl)ethyl]-β-alaninamide bis-trifluoroacetic acid salt], the IC50 in test [1] was 200 nM; in test [2], 79.4 nM; in test [3] it was 63.1 nM.

Take `CC1(C)CCC(N(CCNCCc2ccc(O)c3[nH]c(=O)sc23)C(=O)CCNCCc2cccc(O)c2)CC1` [Example 91, N^1-(4,4-Dimethylcyclohexyl)-N^1-(2-{[2-(4-hydroxy-2-oxo-2,3-dihydro-1,3-benzothiazol-7-yl)ethyl]amino}ethyl)-N^3-[2-(3-hydroxyphenyl)ethyl]-β-alaninamide bis-trifluoroacetic acid salt]: the values for the IC50 in test [1], in test [2] and in test [3] were 3980 nM, 39.8 nM and 126 nM, respectively.
